{"source": "paper PMC9632859", "about": "“Modulation of NMDA receptor activity by CR4056, an imidazoline-2 receptor ligand with analgesic properties” (Frontiers in Pain Research, 2022)", "key": {"[1]": {"tested_on": "lamina II neuron excitability", "experiment": "Current-clamp recording of summated EPSPs and action potentials on repetitive dorsal root stimulation", "assay_type": "cell-based, rat", "settings": "during CR4056; N 7; control median 0.310", "from_the_text": "Sprague–Dawley rats (male and female at postnatal days P15-P23) were anaesthetized with isoflurane and decapitated. The spinal cord and vertebrae were rapidly removed and placed in ice-cold dissecting Krebs' solution (composition in mM: 90 NaCl, 50 sucrose, 2.5 KCl, 25 NaHCO3, 1 NaH2PO4·H2O, 25 glucose, 6 MgCl2, 1.5 CaCl2, 1 kynurenic acid), bubbled with carboxygen (95% O2, 5% CO2). The lumbar part of the spinal cord was isolated, embedded in low melting point agarose (3% w/v, Thermo Fisher Scientific, Waltham, United States), and transverse slices (500 µm thick) were obtained using a vibrating microtome (WPI, Sarasota, United States). Slices were incubated in oxygenated incubation Krebs' solution (composition in mM: 125 NaCl, 2.5 KCl, 25 NaHCO3, 1 NaH2PO4·H2O, 25 glucose, 6 MgCl2, 1.5 CaCl2) at 32°C for 30 min and then used for recording.\nNeurons in spinal cord slices were visualized using an Axioskop microscope (Zeiss, Oberkochen, Germany), fitted with Nomarski optics and connected to a CCD camera (Dage-MTI, Michigan City, United States). Patch-clamp recordings were performed by using thick-walled borosilicate pipettes (3–5 MOhm resistance). Data were recorded and acquired using a MultiClamp 700A amplifier and the pClamp 10 software (Molecular Devices, Sunnyvale, United States). Sampling rate was 10 kHz, and data were filtered at 2–5 kHz. The dorsal root attached to each slice was stimulated using a suction electrode. Stimulus duration was 0.1 ms, stimulus intensity was 500 µA, able to activate both A and C primary afferent fibers ([20]). Extracellular field potentials were recorded by positioning a glass pipette (3–5 µm diameter, filled with Krebs' extracellular solution) on lamina II in spinal cord slices. Extracellular synaptic potentials were evoked by dorsal root stimulation, as described above, and amplified by using a Multiclamp 700A amplifier (Molecular Devices, Sunnyvale, United States).\nFor the experiments on neurons in slices the following Krebs' extracellular solution was used (composition in mM): 125 NaCl, 2.5 KCl, 25 NaHCO3, 1 NaH2PO4·H2O, 25 glucose, 1 MgCl2, 2 CaCl2. A cesium-based internal solution was used during the voltage-clamp experiments (composition in mM: 120 caesium methanesulfonate, 10 sodium methanesulfonate, 10 EGTA, 1 CaCl2, 10 Hepes, 5 lidocaine N-ethyl bromide quaternary salt-Cl, 5 MgATP, pH adjusted to 7.2 with CsOH, osmolarity 290 mOsmol L^−1), while a potassium-based solution was utilized for the experiments in current-clamp (composition in mM: 120 potassium methanesulfonate, 10 NaCl, 10 EGTA, 1 CaCl2, 10 Hepes, 5 MgATP, pH adjusted to 7.2 with KOH, osmolarity 300 mOsmol L^−1).\nFinally, we tested whether CR4056 was able to depress lamina II neuron excitability in response to repetitive stimulation of the dorsal root. […]"}, "NMDA receptor": {"tested_on": "NMDA receptor", "experiment": "NMDA-evoked currents in primary culture of cortical neurons, whole-cell patch-clamp", "assay_type": "cell-based, rat", "protocol": "Primary cultures of cortical (CX) and cerebellar (CB) neurons were prepared from newborn (CX) or seven days old (CB) Sprague-Dawley rats Briefly, cells from cortex and cerebellum were dispersed with trypsin (0.24 mg/ml; Sigma Aldrich, Milan, Italy) and plated at a density of 0.8 × 10^6 cells/ml on 35 mm Falcon dishes coated with poly-L-lysine (10 µg/ml, Sigma Aldrich). Cells were plated in basal Eagle's Medium (BME; Celbio, Milan, Italy), supplemented with 10% fetal bovine serum (Celbio), 2 mM glutamine, 25 mM KCl and 100 µg/ml gentamycin (Sigma Aldrich) and maintained at 37°C in 5% CO2. After 24 h in vitro, the medium was replaced with 1:1 mixture of BME and Neurobasal medium (Celbio, Milan) containing 2% B27 supplement, 1% antibiotic, and 0.25% glutamine (Invitrogen). At […] in vitro (DIV5), cytosine arabinofuranoside (Ara-C) was added at final concentration of 1 µM. Thereafter, half of the medium was replaced twice a week with Neurobasal medium containing 2% B27 supplement, 1% antibiotic, and 0.25% glutamine.\n(§1) Recordings were performed in cortical and cerebellar neurons after 7–9 days in culture or in spinal cord slices from postnatal rats. All recordings were performed at room temperature, under voltage-clamp in the whole-cell configuration of the patch-clamp technique ([19]). […] Currents were amplified with an Axopatch 1D amplifier (Axon Instruments, Foster City. CA), filtered at 5 kHz, digitized at 10 kHz.\n(§2) The chamber used for recording from cultured neurons was continuously perfused at 2 ml/min with an extracellular medium composed of (mM): 145 NaCl, 5 KCl, 1 CaCl2, 5 Hepes, 5 Glucose, and 20 Sucrose, pH 7.4 with NaOH. Intracellular solution contains (mM): 140 KCl, 3 MgCl2, 5 EGTA, 5 Hepes, and 2 ATP-Na, pH 7.3 with KOH.\n(§3) All drugs were applied directly by gravity through a Y-tube perfusion system ([21]) in the experiments performed in culture while in slice experiments CR4056 and the receptor antagonists were bath perfused.\nWhen CR4056 (10 µM) was delivered inside the cell through the patch pipette the response to NMDA application was recorded at time 0 (just after breaking inside the cell) and after 1.5, 3, 4.5, 6 min. The NMDA-evoked current was recorded at these time intervals and the amplitude of the current was measured.\nThe effect of CR 4056 in primary neuronal cultures was calculated as % variation of the NMDA-evoked current after application of the drug. A negative variation means a reduction of the control current. Off-line data analysis, curve fitting, and figure preparation were performed with Clampfit 9 or 10 (Molecular Devices, Sunnyvale, CA, United States), Origin 4.1 (Microcal, Northampton, MA, United States), and Microsoft Office (Microsoft). SigmaPlot 11 (SYSTAT, Palo Alto, CA, United States) and GraphPad Prism 9.3 (GraphPad Software, San Diego, CA, United States) were used for statistical analysis.\nNMDA-evoked currents were recorded in primary culture of cortical neurons using the patch-clamp technique in the whole cell configuration. Fast application of NMDA (100 µM) and Glycine (10 µM) elicited an inward current that was decreased by CR4056 (Figure 1A); the effect was reversible and dose-dependent (Figure 1B). […] (Figure 1B)."}, "[2]": {"molecular_target": "GluN1-GluN2A containing receptors (Homo sapiens, UniProt Q05586+Q12879)", "sequence (Q12879 23-1464, other chains not shown)": "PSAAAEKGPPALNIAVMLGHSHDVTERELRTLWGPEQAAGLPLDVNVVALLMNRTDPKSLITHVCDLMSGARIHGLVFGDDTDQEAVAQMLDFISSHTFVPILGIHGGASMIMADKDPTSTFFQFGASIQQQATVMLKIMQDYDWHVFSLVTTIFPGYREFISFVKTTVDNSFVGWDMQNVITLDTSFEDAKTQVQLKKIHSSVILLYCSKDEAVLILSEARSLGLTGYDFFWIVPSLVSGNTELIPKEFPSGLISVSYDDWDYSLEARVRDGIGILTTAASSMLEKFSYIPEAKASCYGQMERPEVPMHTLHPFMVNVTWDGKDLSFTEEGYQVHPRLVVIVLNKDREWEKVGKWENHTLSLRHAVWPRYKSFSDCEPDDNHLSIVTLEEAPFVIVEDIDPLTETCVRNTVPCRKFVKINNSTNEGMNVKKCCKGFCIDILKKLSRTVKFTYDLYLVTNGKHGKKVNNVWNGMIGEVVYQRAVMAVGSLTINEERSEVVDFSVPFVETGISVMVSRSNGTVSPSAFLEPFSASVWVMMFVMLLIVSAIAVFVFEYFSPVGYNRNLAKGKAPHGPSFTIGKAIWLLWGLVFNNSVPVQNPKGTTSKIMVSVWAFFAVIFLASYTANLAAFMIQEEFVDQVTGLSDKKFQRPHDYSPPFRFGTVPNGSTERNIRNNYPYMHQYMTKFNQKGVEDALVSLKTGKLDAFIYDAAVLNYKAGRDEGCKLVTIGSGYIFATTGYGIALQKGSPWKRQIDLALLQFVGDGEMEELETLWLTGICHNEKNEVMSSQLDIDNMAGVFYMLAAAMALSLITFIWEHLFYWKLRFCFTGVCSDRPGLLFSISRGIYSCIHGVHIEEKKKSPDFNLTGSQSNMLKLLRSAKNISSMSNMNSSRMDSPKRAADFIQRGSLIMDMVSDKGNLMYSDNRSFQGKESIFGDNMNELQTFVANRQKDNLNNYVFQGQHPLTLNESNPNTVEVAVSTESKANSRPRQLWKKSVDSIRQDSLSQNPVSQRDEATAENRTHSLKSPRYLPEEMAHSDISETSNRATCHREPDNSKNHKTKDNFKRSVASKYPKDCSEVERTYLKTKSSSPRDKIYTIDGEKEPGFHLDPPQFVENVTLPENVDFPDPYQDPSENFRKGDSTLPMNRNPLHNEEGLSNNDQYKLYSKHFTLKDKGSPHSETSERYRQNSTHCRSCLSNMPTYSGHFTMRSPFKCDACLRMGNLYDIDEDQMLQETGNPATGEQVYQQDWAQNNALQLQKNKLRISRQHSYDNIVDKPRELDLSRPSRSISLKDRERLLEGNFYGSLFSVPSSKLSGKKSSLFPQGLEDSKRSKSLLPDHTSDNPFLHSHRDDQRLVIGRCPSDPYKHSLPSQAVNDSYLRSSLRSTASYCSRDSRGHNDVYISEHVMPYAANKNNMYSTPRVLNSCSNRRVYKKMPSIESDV", "experiment": "NMDA-evoked currents in JM4C fibroblasts expressing GluN1-GluN2A", "assay_type": "cell-based", "protocol": "Mouse connective tissue fibroblasts JM4C cells stably transfected with NR1A/NR2A or NR1A/NR2B human NMDA inducible receptors were kindly donated by Dr. Paul Whiting, Merk Sharp / Dohme (UK). They were grown in Dulbecco's Modified Basal Eagle's medium (DMEM) with Na+ pyruvate, 4,500 mg glucose and glutamine. For growing, DMEM was added with geneticin 1 mg/ml (Sigma) and foetal bovine serum 10% (Celbio). One day before experiment, fibroblasts confluent dishes were split with trypsin-EDTA 0.05% (Euroclone) and plated at the density of 0.5 × 10^6 cells/ml in 2 ml dishes containing an inducing DMEM with ketamine (final concentration 0.015%, Gellini International, Italy) and 25 nM dexamethasone (Sigma Aldrich) to induce NMDA receptors expression.\nas §1, §2, §3\nIncreasing concentrations of CR4056 (0.1–100 µM) were applied to NMDA-evoked currents in fibroblasts expressing GluN1- GluN2A or GluN1- GluN2B subunits (Figure 3A)."}}, "data": [{"smiles": "c1ccc(-c2ncc3cc(-n4ccnc4)ccc3n2)cc1", "note": "[CR4056, 2-phenyl-6-(1H-imidazol-1yl)quinazoline]", "values": [{"measurement": "N action potentials/train in CR, median", "setting": "[1]", "result": 0.150}, {"measurement": "change of amplitude of NMDA currents, compound dialyzed inside the cell via patch pipette", "setting": "NMDA receptor; 10 µM intracellular, p > 0.05, t-test", "result": "did not change significantly"}, {"measurement": "CR4056 effect on NMDA current when co-applied with idazoxan", "setting": "NMDA receptor; CR4056 10 µM + idazoxan 10 µM", "result": "does not change CR4056 effect"}, {"measurement": "reduction of current evoked by increasing NMDA concentration (type of antagonism)", "setting": "NMDA receptor; CR4056 10 µM, NMDA 10 to 100 µM", "result": "reduced to the same extent"}, {"measurement": "reduction of NMDA currents in control vs after pertussis toxin", "setting": "NMDA receptor; PTX 200 ng/ml for 24 h", "result": "no statistically significant differences"}, {"measurement": "effect on NMDA current at high glycine concentrations", "setting": "NMDA receptor; cortical neurons, CR4056 10 µM, glycine 1-500 µM, one-way ANOVA", "result": "significatively reduced"}, {"measurement": "IC50", "setting": "NMDA receptor; cortical neurons, NMDA 100 µM + glycine 10 µM, read-out: IC50 of reduction of NMDA-evoked current", "result": "5.3 ± 0.1", "unit": "µM"}, {"measurement": "maximal reduction of NMDA current (efficacy)", "setting": "NMDA receptor; cortical neurons, from dose-response curve", "result": "84.4 ± 6", "unit": "%"}, {"measurement": "reduction of NMDA-evoked current at +40 mV", "setting": "NMDA receptor; holding potential +40 mV, CR4056 10 µM", "result": "−31 ± 1", "unit": "%"}, {"measurement": "reduction of NMDA-evoked current at −40 mV", "setting": "NMDA receptor; holding potential −40 mV, CR4056 10 µM", "result": "−33 ± 4", "unit": "%"}, {"measurement": "IC50", "setting": "[2]; 0.1–100 µM, read-out: IC50 of reduction of NMDA-evoked current, GluN1-GluN2A", "result": "21 ± 12", "unit": "µM"}, {"measurement": "Emax", "setting": "[2]; read-out: efficacy (Eff, maximal effect) on NMDA-evoked current, GluN1-GluN2A", "result": "-47 ± 3", "unit": "%"}]}]}
